Data: patent US10716756B2, “Compositions and methods for reducing reperfusion injury” (VIVACELLE BIO, INC., priority 2016, dated 2020)
Where “and” joins values, the source holds several entries; their conditions need not be identical. Equal values may be shown once.

Legend:
human neutrophils = details: Simpkins et al. 1985; cited from earlier work
[1] = Battion et al. 1968; cited from earlier work
[2] = 1 atm; from The Engineering Toolbox; cited from earlier work
[3] = Nitric oxide uptake/content of soybean oil emulsion by mass spectrometry
Method: Some samples (1 ml each) were left open to air in 2.0 ml tubes for 30 minutes prior to dissolved gas analysis. In other experiments the emulsion was placed into a 15 ml tube. The headspace was filled with the gas under study and the gas was allowed to enter the emulsion by equilibration over 60 minutes with the tube on its side to increase the gas emulsion interaction. 50 μL drawn from each of these fluids were injected into a Sievers purge vessel at 37° C. containing 36 ml of a mildly acidic solution consisting of 32 ml of 1M HCL and 4 ml of 0.5M ascorbic acid. […] Signals generated at m/z=32 upon injection of RL and lipid emulsion samples were integrated using Peakfit and compared to those obtained with distilled water.
In another set of experiments we measured the uptake of nitric oxide by a commercially available 20% soybean oil emulsion, Liposyn III 20%. This emulsion contains 20% soybean oil, 1.2% egg phospholipids and 2.5% glycerin in water. Using NaOH pH was adjusted to 8.3. […] 100 ppm nitric oxide in helium was used to purge the hesdspace for two minutes taking care not to bubble the fluid. For sixty minutes the sample was allowed to reach gas-liquid equilibrium with the tube placed on its side to maximize gas-emulsion contact.
The uptake of NO and O2 by a commercial 20% soybean oil emulsion, Liposyn, was measured using mass spectrometry. […] To approximate field conditions, no warming or respiratory support was provided. Next, 55% of blood volume was removed within 2 minutes. […] The time of clinical death was defined as the cessation of respiration. […] In 5 mice a volume of Ringer's lactate equal to the volume of blood removed was administered via the internal jugular vein over 2 minutes immediately after the loss of chest wall movement. […] In 6 mice a volume of Ringer's lactate equal to the volume of blood removed was administered via the carotid artery over 2 minutes. […] In the next set of experiments, infusing Ringers' lactate was delayed for 3 minutes. […] A volume of emulsion equal to the volume of blood that had been removed was infused.

[4] = anesthetic; cited from earlier work
[5] = published value; cited from earlier work

C=CCN1CC[C@]23c4c5ccc(O)c4O[C@H]2C(=O)CC[C@]3(O)[C@H]1C5 [(+) naloxone]
concentration range that produces anti-inflammatory effect (human neutrophils): 10^−5-10^−4 M

O=O [Oxygen]
solubility in lipid relative to water [1]: 4.41 times

O [Water]
Oxygen Content at 25° C. and Sea level Pressure [2]: 8.3 mg/L
NO Content, single sample ([3]; 100 ppm nitric oxide in helium headspace, 60 min equilibration): 2.29 mol/L and 1.52 mol/L and 1.63 mol/L and 1.72 mol/L and 1.69 mol/L
NO Content, Mean ([3]; 100 ppm nitric oxide in helium headspace, 60 min equilibration, 5 samples): 1.77 mol/L
NO content ([3]; mass spectrometry, Example 7): 2.12×10^−3±0.17 moles/L

[Xe] [Xenon]
minimum alveolar concentration (MAC) [4]: 71%

hemoglobin
oxygen release time [5]: 17.5 ms
